Measurements reported in patent US7879344B2, “Transdermal delivery of oleocanthal for relief of inflammation” (Kimberly-Clark Worldwide, Inc., priority 2006, dated 2011).

Experiments:
[1] = phenolic group of oleocanthal; carboxylic acid group of ibuprofen and similar NSAIDs; cited from earlier work
[2] = solubility in fats and oils (stated in the text, no test described); assay type: physicochemical; details: "it has been discovered", no data given
Source text: Traditionally, it has been difficult to administer ibuprofen and other similar NSAIDs transdermally. […] This is particularly problematic for transdermal administration, given the high concentration of lipids in the stratum corneum. Consequently, formulating a transdermal ibuprofen-containing composition that is capable of penetrating through the stratum corneum in effective amounts is difficult.
Without wishing to be bound to any particular theory, it is believed that the ability of oleocanthal to remain in a neutral state over a broad pH range contributes to the ability of oleocanthal to more readily penetrate the stratum corneum, as compared to ibuprofen and similar NSAIDs. […] This is advantageous for transdermal delivery. Since most transdermal compositions are formulated to have a pH of from about 3.5 to about 8.5, and more typically from about 5.0 to about 6.0, oleocanthal will mostly be in its neutral, non-ionized state when the transdermal composition is contacted with skin. In contrast, ibuprofen and similar NSAIDs, which contain a carboxylic acid group that may begin to ionize at a pH of about 4.0, will be all or partly in their ionized state (and thus […]) when the transdermal composition is contacted with skin. Consequently, oleocanthal penetrates the stratum corneum more readily than ibuprofen and other similar NSAIDs.

SMILES | pH at which the ionisable group begins to ionize [1] | solubility in fats and oils [2]
CC(C)Cc1ccc(C(C)C(=O)O)cc1 (stereo not drawn) [ibuprofen, reference compound] | about 4.0 pH | –
C/C=C(/C=O)[C@@H](CC=O)CC(=O)OCCc1ccc(O)cc1 [oleocanthal] | about 9.5 pH | highly soluble
